Source: US4570006A, “Amidine compound, process for producing same and anti-complement agent comprising same” (Torii & Co. Ltd., priority 1981, dated 1986)

Legend:
[1] = molecular target: T1, Clr (Homo sapiens, UniProt P00736); test: Anti-Cl esterase activity, Clr (AAME hydrolysis); assay type: biochemical; settings: hydrolysis of AAME; read-out: Anti-Cl activity, Clr (ID50)
T1 sequence (P00736 464-705 limits assumed): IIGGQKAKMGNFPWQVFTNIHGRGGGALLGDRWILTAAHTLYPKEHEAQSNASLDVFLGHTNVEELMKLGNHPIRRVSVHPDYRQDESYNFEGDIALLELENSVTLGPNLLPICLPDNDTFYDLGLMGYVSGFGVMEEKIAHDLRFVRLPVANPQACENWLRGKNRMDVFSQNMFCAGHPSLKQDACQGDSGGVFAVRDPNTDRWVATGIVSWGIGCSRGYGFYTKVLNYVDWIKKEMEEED
T1 sequence (P00736 18-463 limits assumed): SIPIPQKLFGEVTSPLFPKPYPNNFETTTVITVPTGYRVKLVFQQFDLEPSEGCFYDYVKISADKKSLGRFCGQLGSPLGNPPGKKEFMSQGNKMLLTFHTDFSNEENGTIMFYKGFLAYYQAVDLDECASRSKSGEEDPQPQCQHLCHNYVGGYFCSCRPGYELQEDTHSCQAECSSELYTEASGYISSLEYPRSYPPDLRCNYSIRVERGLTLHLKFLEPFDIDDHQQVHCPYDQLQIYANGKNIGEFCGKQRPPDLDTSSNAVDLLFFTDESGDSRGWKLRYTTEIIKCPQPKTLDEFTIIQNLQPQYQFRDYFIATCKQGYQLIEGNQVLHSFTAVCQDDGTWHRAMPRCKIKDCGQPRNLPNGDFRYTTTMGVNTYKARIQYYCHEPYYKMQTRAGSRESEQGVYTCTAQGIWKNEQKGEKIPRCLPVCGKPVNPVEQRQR
Procedure: The anti-Cl esterase ([…]) activity was determined according to the method of Okamura et al. [K. Okamura, M. Muramatsu and B. Fujii, Biochem. Biophys.

[2] = molecular target: T2, Cls (Homo sapiens, UniProt P09871); test: Anti-Cl esterase activity, Cls (ATEE hydrolysis); assay type: biochemical; settings: hydrolysis of ATEE; read-out: Anti-Cl activity, Cls (50% inhibition)
T2 sequence (P09871 438-688 limits assumed): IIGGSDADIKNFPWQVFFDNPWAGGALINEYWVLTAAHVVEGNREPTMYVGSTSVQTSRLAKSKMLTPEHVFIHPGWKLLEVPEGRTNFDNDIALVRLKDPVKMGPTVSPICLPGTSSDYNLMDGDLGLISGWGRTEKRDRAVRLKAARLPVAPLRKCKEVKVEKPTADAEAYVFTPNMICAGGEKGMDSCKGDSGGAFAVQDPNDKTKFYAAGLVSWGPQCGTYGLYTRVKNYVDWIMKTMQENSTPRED
T2 sequence (P09871 16-437 limits assumed): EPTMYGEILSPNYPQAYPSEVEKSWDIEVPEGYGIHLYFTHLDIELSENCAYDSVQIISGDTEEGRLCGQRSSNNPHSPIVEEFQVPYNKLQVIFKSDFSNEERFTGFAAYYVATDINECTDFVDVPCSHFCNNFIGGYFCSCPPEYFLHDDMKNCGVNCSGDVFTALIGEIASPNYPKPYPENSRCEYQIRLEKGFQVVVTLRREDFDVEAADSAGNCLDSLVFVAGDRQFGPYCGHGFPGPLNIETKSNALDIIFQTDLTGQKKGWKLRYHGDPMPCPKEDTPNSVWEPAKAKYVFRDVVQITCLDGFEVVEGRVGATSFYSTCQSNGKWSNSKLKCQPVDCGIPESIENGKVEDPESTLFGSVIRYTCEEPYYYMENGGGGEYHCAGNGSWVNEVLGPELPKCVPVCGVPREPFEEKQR
Procedure: The anti-Cl esterase (Clr, Cls) activity was determined according to the method of Okamura et al. [K. Okamura, M. Muramatsu and B. Fujii, Biochem. Biophys. […] The figures in Table 2 have the following meanings:
Cls: Molar concentration of the test compound which inhibits 50% of the ability of Cls to hydrolyse ATEE (acetyltyrosin ethyl ester).

[3] = tested on: complement; test: Inhibition of complement mediated hemolysis; assay type: cell-based
Procedure: The complement mediated hemolysis is widely used as a means to determine the titration of complement. The principle of this method is based on the fact that hemolysis if caused by the activation of complement, when the latter is added to a complex (immune complex) of erythrocytes and the antibody thereof. The degree of hemolysis varies in proportion to the amount of complement added. Therefore, when a known amount of complement admixed with a Cl esterase inhibitor is used, the hemolysis must be suppressed in proportion to the inhibitory activity.
The anti-Cl esterase (Clr, Cls) activity was determined according to the method of Okamura et al. [K. Okamura, M. Muramatsu and B. Fujii, Biochem. Biophys. […] The figures in Table 2 have the following meanings: […]

SMILES | IC50 [1] [µM] | IC50 [2] [µM] | Inhibition of complement mediated hemolysis (%) ([3]; compound at 1 × 10^-4) | Inhibition of complement mediated hemolysis (%) ([3]; compound at 1 × 10^-5) | Inhibition of complement mediated hemolysis (%) ([3]; compound at 1 × 10^-6) | Inhibition of complement mediated hemolysis (%) ([3]; compound at 1 × 10^-7)
N=C(N)Nc1ccc(C(=O)Oc2ccc(C(=N)N)cc2C(=O)c2ccccc2)c(Cl)c1 [Compound 77] | > 10 | 0.8 | 97.3 | 48.9 | 1.8 | 0
COc1cc(C(=N)N)ccc1OC(=O)c1ccc([N+](=O)[O-])c(C)c1 [Compound 80] | > 10 | > 10 | 66.5 | 6.9 | 0 | 0
Cc1cc(C(=O)Oc2ccc(C(=N)N)cc2C(=O)c2ccccc2)ccc1[N+](=O)[O-] [Compound 81] | > 10 | > 10 | 98.2 | 71.6 | 4.2 | 0
COc1cc(C(=N)N)ccc1OC(=O)CCCc1ccc([N+](=O)[O-])cc1 [Compound 82] | > 10 | > 10 | 29.8 | 0 | 0 | 0
N#Cc1ccc(C(=O)Oc2ccc(C(=N)N)cc2C(=O)c2ccccc2)cc1 [Compound 83] | 9 | 4 | 100 | 90.2 | 12.9 | –
COC(=O)c1cc(C(=N)N)ccc1OC(=O)c1ccc(F)cc1 [Compound 84] | > 10 | 0.4 | 98.6 | 67.7 | 2.0 | 0
N=C(N)c1ccc(OC(=O)c2ccc(F)cc2)c([N+](=O)[O-])c1 [Compound 85] | 0.6 | 0.5 | 98.6 | 97.9 | 67.1 | 7.0
Cc1cccc(Nc2ccccc2C(=O)Oc2ccc(C(=N)N)cc2C(=O)c2ccccc2)c1C [Compound 87] | > 10 | 5 | 0 | 0 | 0 | 0
